Measurements taken from patent US7772241B2, “Variolin derivatives and their use as antitumor agents” (Pharma Mar S.A., priority 2001, dated 2010).
Where two headings read alike, the source gives them in different places.

Assays:
PANC-1 = assay: Inhibition of cells growth by colorimetric (SRB) assay, PANC-1; conditions: for TGI PANC-1 / GI50: SRB assay, 48 hours exposure; for GI50: read-out: GI50 PANC-1
How it was run: (§1)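 Human tumour cells seeded at 5×10^3/well in RPMI 1640 10% FBS, attached 18 h, then exposed 48 h to samples at 10 to 10^−8 μg/ml in DMSO/EtOH/PBS (0.5:0.5:99). Growth read by SRB staining after TCA fixation, OD 490 nm, triplicate wells; GI, TGI and LC derived.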

SK-BR-3 = assay: Inhibition of cells growth by colorimetric (SRB) assay, SK-BR-3
How it was run: as §1

SK-OV-3 = assay: Inhibition of cells growth by colorimetric (SRB) assay, SK-OV-3
How it was run: as §1

SK-MEL-28 = assay: Inhibition of cells growth by colorimetric (SRB) assay, SK-MEL-28
How it was run: as §1

LoVo = assay: Inhibition of cells growth by colorimetric (SRB) assay, LoVo; conditions: for CC50: read-out: LC50 LOVO
How it was run: as §1

A-549 = assay: Inhibition of cells growth by colorimetric (SRB) assay, A-549; conditions: for GI50: read-out: GI50 A-549
How it was run: as §1

IGROV-1 = assay: Inhibition of cells growth by colorimetric (SRB) assay, IGROV-1
How it was run: as §1

LoVo-Dox = assay: Inhibition of cells growth by colorimetric (SRB) assay, LoVo-Dox
How it was run: as §1

DU-145 = assay: Inhibition of cells growth by colorimetric (SRB) assay, DU-145
How it was run: as §1

HT-29 = assay: Inhibition of cells growth by colorimetric (SRB) assay, HT-29; conditions: for GI50: read-out: GI50 HT-29
How it was run: as §1

LNCaP = assay: Inhibition of cells growth by colorimetric (SRB) assay, LNCaP; conditions: for GI50: read-out: GI50 LN-caP
How it was run: as §1

K-562 = assay: Inhibition of cells growth by colorimetric (SRB) assay, K-562; conditions: for GI50: read-out: GI50 K-562
How it was run: as §1

IGROV-ET = assay: Inhibition of cells growth by colorimetric (SRB) assay, IGROV-ET
How it was run: as §1

HMEC1 = assay: Inhibition of cells growth by colorimetric (SRB) assay, HMEC1; conditions: for TGI H-MEC-1: in M (unit assumed); for CC50: read-out: LC50 H-MEC-1
Description: The finality of these assays is to interrupt the growth of a “in vitro” tumor cell culture by means a continued exhibition of the cells to the sample to be testing.
This form of the assay employs 96 well cell culture microplates of 9 mm diameter (Faircloth, 1988; Mosmann, 1983). Most of the cell lines are obtained from American Type Culture Collection (ATCC) derived from different human cancer types.
Cells are maintained in RPMI 1640 10% FBS, supplemented with 0.1 g/l penicillin and 0.1 g/l streptomycin sulphate and then incubated at 37° C., 5% CO2 and 98% humidity. For the experiments, cells were harvested from subconfluent cultures using trypsin and resuspended in fresh medium before plating.
Cells are seeded in 96 well microtiter plates, at 5×10^3 cells per well in aliquots of 195 μl medium, and they are allowed to attach to the plate surface by growing in drug free medium for 18 hours. Afterward, samples are added in aliquots of 5 μl in a ranging from 10 to 10^−8 μg/ml, dissolved in DMSO/EtOH/PBS (0.5:0.5:99). After 48 hours exposure, the antitumor effect are measured by the SRB methodology: cells are fixed by adding 50 μl of cold 50% (wt/vol) trichloroacetic acid (TCA) and incubating for 60 minutes at 4° C. Plates are washed with deionized water and dried. One hundred μl of SRB solution (0.4% wt/vol in 1% acetic acid) is added to each microtiter well and incubated for 10 minutes at room temperature. Unbound SRB is removed by washing with 1% acetic acid. Plates are air dried and bound stain is solubilized with Tris buffer. Optical densities are read on a automated spectrophotometric plate reader at a single wavelength of 490 nm.
The values for mean +/−SD of data from triplicate wells are calculated. Some parameters for cellular responses can be calculated: GI=growth inhibition, TGI=total growth inhibition (cytostatic effect) and LC=cell killing (cytotoxic effect).

## Cc1ccc2c(-c3ccnc(N)n3)c3ccnc(N)n3c2n1.Cl [Compound 44]
PANC-1; Homo sapiens, PANC-1, 48 h, read-out: LC50 PANC-1, SRB assay, 48 hours exposure
  CC50: 27500 nM
PANC-1
  TGI PANC-1: 9.94E−06
  GI50: 1710 nM
SK-BR-3; Homo sapiens, SK-BR-3, 48 h, read-out: GI50 SK-BR-3, SRB assay, 48 hours exposure
  GI50: 612 nM
SK-BR-3; Homo sapiens, SK-BR-3, 48 h, read-out: LC50 SK-BR-3, SRB assay, 48 hours exposure
  CC50: 6310 nM
SK-BR-3; SRB assay, 48 hours exposure
  TGI SK-BR-3: 1.61E−06
SK-OV-3; Homo sapiens, SK-OV-3, 48 h, read-out: LC50 SKOV-3, SRB assay, 48 hours exposure
  CC50: 27500 nM
SK-OV-3; SRB assay, 48 hours exposure
  TGI SKOV-3: 2.75E−05
SK-MEL-28; Homo sapiens, SK-MEL-28, 48 h, read-out: GI50 MEL-28, SRB assay, 48 hours exposure
  GI50: 601 nM
SK-MEL-28; Homo sapiens, SK-MEL-28, 48 h, read-out: LC50 MEL-28, SRB assay, 48 hours exposure
  CC50: 8950 nM
SK-MEL-28; SRB assay, 48 hours exposure
  TGI MEL-28: 2.11E−06
LoVo; Homo sapiens, LoVo, 48 h, read-out: GI50 LOVO, SRB assay, 48 hours exposure
  GI50: 456 nM
LoVo; SRB assay, 48 hours exposure
  TGI LOVO: 1.13E−06
  CC50: 2750 nM
A-549; Homo sapiens, A549, 48 h, read-out: LC50 A-549, SRB assay, 48 hours exposure
  CC50: 27500 nM
A-549; SRB assay, 48 hours exposure
  TGI A-549: 2.75E−05
  GI50: 9170 nM
IGROV-1; Homo sapiens, IGROV-1, 48 h, read-out: GI50 IGROV, SRB assay, 48 hours exposure
  GI50: 1080 nM
IGROV-1; Homo sapiens, IGROV-1, 48 h, read-out: LC50 IGROV, SRB assay, 48 hours exposure
  CC50: 24600 nM
IGROV-1; SRB assay, 48 hours exposure
  TGI IGROV: 6.34E−06
LoVo-Dox; Homo sapiens, 48 h, read-out: GI50 LOVO-DOX, SRB assay, 48 hours exposure
  GI50: 777 nM
LoVo-Dox; Homo sapiens, 48 h, read-out: LC50 LOVO-DOX, SRB assay, 48 hours exposure
  CC50: 23500 nM
LoVo-Dox; SRB assay, 48 hours exposure
  TGI LOVO-DOX: 3.27E−06
DU-145; Homo sapiens, DU-145, 48 h, read-out: GI50 DU-145, SRB assay, 48 hours exposure
  GI50: 475 nM
DU-145; SRB assay, 48 hours exposure
  TGI DU-145: 1.51E−06
HT-29; Homo sapiens, HT-29, 48 h, read-out: LC50 HT-29, SRB assay, 48 hours exposure
  CC50: 27500 nM
HT-29; SRB assay, 48 hours exposure
  TGI HT-29: 1.09E−05
  GI50: 1090 nM
LNCaP; SRB assay, 48 hours exposure
  TGI LN-caP: 7.85E−07
  GI50: 351 nM
LNCaP; read-out: LC50 LN-caP, SRB assay, 48 hours exposure
  CC50: 1760 nM
K-562; Homo sapiens, K562, 48 h, read-out: LC50 K-562, SRB assay, 48 hours exposure
  CC50: 27500 nM
K-562; SRB assay, 48 hours exposure
  TGI K-562: 2.75E−05
  GI50: 4170 nM
IGROV-ET; Homo sapiens, 48 h, read-out: GI50 IGROV-ET, SRB assay, 48 hours exposure
  GI50: 568 nM
IGROV-ET; Homo sapiens, 48 h, read-out: LC50 IGROV-ET, SRB assay, 48 hours exposure
  CC50: 17200 nM
IGROV-ET; SRB assay, 48 hours exposure
  TGI IGROV-ET: 1.87E−06
HMEC1; Homo sapiens, HMEC-1, 48 h, read-out: GI50 H-MEC-1, SRB assay, 48 hours exposure
  GI50: 158 nM
HMEC1; SRB assay, 48 hours exposure
  TGI H-MEC-1: 3.07E−07
  CC50: 1310 nM

## COc1nccc(-c2c3cccnc3n3c(N)nccc23)n1 [Compound 76]
PANC-1
  TGI PANC-1: 2.15E−06
  GI50: 650 nM
SK-BR-3; SRB assay, 48 hours exposure
  TGI SK-BR-3: 1.21E−06
SK-BR-3; read-out: GI50 SK-BR-3, SRB assay, 48 hours exposure
  GI50: 541 nM
SK-BR-3; read-out: LC50 SK-BR-3, SRB assay, 48 hours exposure
  CC50: 2710 nM
SK-OV-3; Homo sapiens, SK-OV-3, 48 h, read-out: GI50 SKOV-3, SRB assay, 48 hours exposure
  GI50: 1220 nM
SK-OV-3; SRB assay, 48 hours exposure
  TGI SKOV-3: 3.42E−06
SK-OV-3; read-out: LC50 SKOV-3, SRB assay, 48 hours exposure
  CC50: 34300 nM
SK-MEL-28; SRB assay, 48 hours exposure
  TGI MEL-28: 8.01E−07
SK-MEL-28; read-out: GI50 MEL-28, SRB assay, 48 hours exposure
  GI50: 359 nM
SK-MEL-28; read-out: LC50 MEL-28, SRB assay, 48 hours exposure
  CC50: 1790 nM
LoVo; SRB assay, 48 hours exposure
  TGI LOVO: 6.81E−07
  CC50: ≥ 34200 nM
LoVo; read-out: GI50 LOVO, SRB assay, 48 hours exposure
  GI50: 163 nM
A-549; SRB assay, 48 hours exposure
  TGI A-549: 1.49E−06
  GI50: 407 nM
A-549; read-out: LC50 A-549, SRB assay, 48 hours exposure
  CC50: 7700 nM
IGROV-1; SRB assay, 48 hours exposure
  TGI IGROV: 1.77E−06
IGROV-1; read-out: GI50 IGROV, SRB assay, 48 hours exposure
  GI50: 725 nM
IGROV-1; read-out: LC50 IGROV, SRB assay, 48 hours exposure
  CC50: 3420 nM
LoVo-Dox; SRB assay, 48 hours exposure
  TGI LOVO-DOX: 3.42E−07
LoVo-Dox; read-out: GI50 LOVO-DOX, SRB assay, 48 hours exposure
  GI50: 773 nM
LoVo-Dox; read-out: LC50 LOVO-DOX, SRB assay, 48 hours exposure
  CC50: ≥ 34200 nM
DU-145; SRB assay, 48 hours exposure
  TGI DU-145: 1.42E−06
DU-145; read-out: GI50 DU-145, SRB assay, 48 hours exposure
  GI50: 542 nM
DU-145; read-out: LC50 DU-145, SRB assay, 48 hours exposure
  CC50: 3420 nM
HT-29; SRB assay, 48 hours exposure
  TGI HT-29: 3.42E−06
  GI50: 770 nM
HT-29; read-out: LC50 HT-29, SRB assay, 48 hours exposure
  CC50: ≥ 34200 nM
LNCaP; Homo sapiens, LNCaP, 48 h, read-out: LC50 LN-caP, SRB assay, 48 hours exposure
  CC50: 3080 nM
LNCaP; SRB assay, 48 hours exposure
  TGI LN-caP: 4.55E−07
  GI50: 72.9 nM
K-562; SRB assay, 48 hours exposure
  TGI K-562: 2.28E−06
  GI50: 1020 nM
K-562; read-out: LC50 K-562, SRB assay, 48 hours exposure
  CC50: 5920 nM
IGROV-ET; SRB assay, 48 hours exposure
  TGI IGROV-ET: 2.04E−06
IGROV-ET; read-out: GI50 IGROV-ET, SRB assay, 48 hours exposure
  GI50: 649 nM
IGROV-ET; read-out: LC50 IGROV-ET, SRB assay, 48 hours exposure
  CC50: ≥ 34200 nM
HMEC1; SRB assay, 48 hours exposure
  TGI H-MEC-1: 2.27E−07
  CC50: 1560 nM
HMEC1; read-out: GI50 H-MEC-1, SRB assay, 48 hours exposure
  GI50: 77.7 nM
